Source: ChEMBL document CHEMBL5380823, “Application and Study of ROCK Inhibitors in Pulmonary Fibrosis: Recent Developments and Future Perspectives” (J Med Chem, 2023)

Legend:
[1] = biological target: T1, Rho-associated protein kinase 2 (Homo sapiens, UniProt O75116); test: Inhibition of ROCK2 (unknown origin)
[2] = Oral bioavailability in BLM-induced Sprague-Dawley rat at 2 mg/kg measured upto 24 hrs; format: ADME, organism-based; details: in vivo
[3] = Half life in BLM-induced Sprague-Dawley rat at 1 mg/kg, iv measured upto 24 hrs; format: ADME, organism-based; details: in vivo
[4] = biological target: T1, Rho-associated protein kinase 2; test: Binding affinity to ROCK2 (unknown origin) assessed as inhibition constant
[5] = biological target: Rho-associated protein kinase 1 (Homo sapiens, UniProt Q13464); test: Binding affinity to ROCK1 (unknown origin) assessed as inhibition constant
Rho-associated protein kinase 1, sequence (Q13464 whole entry): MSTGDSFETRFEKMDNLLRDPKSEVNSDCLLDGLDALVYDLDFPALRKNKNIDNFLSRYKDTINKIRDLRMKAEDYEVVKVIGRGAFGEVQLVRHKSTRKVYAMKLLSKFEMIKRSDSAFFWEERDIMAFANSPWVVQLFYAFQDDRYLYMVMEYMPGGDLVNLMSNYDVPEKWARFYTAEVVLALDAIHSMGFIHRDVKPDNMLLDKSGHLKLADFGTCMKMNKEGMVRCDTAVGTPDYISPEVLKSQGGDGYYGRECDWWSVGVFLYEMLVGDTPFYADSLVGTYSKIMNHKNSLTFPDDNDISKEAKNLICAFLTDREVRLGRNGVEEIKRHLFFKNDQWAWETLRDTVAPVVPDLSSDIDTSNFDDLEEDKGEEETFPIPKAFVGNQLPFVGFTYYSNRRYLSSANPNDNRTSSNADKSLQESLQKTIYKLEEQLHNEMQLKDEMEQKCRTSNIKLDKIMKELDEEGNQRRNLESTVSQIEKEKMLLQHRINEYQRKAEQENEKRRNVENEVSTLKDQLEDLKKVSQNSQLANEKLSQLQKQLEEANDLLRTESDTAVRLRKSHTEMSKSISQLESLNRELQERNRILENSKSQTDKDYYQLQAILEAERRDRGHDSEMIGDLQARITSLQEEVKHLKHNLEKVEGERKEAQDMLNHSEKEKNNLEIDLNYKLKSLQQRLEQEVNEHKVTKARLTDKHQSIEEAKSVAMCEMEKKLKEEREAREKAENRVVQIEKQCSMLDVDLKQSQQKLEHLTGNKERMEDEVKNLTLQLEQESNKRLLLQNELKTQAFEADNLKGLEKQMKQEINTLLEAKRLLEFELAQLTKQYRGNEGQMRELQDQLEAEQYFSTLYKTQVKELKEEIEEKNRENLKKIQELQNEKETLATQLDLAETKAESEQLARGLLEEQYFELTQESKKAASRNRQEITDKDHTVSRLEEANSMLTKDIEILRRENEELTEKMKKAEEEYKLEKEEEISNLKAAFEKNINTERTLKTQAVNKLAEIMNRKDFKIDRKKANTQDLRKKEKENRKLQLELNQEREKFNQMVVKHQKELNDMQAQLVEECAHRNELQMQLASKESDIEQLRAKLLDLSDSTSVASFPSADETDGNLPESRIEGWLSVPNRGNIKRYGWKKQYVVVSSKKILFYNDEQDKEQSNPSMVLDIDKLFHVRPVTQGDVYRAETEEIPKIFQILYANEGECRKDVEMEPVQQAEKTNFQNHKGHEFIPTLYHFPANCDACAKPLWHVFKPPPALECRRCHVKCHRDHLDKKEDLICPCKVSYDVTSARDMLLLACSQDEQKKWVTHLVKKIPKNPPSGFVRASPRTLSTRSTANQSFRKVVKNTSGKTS

[6] = Half life in iv dosed Wistar rat at 0.5 mg/kg; format: ADME, organism-based; details: in vivo
[7] = Oral bioavailability in Wistar rat at 1 mg/kg; format: ADME, organism-based; details: in vivo

T1 sequence (O75116 whole entry): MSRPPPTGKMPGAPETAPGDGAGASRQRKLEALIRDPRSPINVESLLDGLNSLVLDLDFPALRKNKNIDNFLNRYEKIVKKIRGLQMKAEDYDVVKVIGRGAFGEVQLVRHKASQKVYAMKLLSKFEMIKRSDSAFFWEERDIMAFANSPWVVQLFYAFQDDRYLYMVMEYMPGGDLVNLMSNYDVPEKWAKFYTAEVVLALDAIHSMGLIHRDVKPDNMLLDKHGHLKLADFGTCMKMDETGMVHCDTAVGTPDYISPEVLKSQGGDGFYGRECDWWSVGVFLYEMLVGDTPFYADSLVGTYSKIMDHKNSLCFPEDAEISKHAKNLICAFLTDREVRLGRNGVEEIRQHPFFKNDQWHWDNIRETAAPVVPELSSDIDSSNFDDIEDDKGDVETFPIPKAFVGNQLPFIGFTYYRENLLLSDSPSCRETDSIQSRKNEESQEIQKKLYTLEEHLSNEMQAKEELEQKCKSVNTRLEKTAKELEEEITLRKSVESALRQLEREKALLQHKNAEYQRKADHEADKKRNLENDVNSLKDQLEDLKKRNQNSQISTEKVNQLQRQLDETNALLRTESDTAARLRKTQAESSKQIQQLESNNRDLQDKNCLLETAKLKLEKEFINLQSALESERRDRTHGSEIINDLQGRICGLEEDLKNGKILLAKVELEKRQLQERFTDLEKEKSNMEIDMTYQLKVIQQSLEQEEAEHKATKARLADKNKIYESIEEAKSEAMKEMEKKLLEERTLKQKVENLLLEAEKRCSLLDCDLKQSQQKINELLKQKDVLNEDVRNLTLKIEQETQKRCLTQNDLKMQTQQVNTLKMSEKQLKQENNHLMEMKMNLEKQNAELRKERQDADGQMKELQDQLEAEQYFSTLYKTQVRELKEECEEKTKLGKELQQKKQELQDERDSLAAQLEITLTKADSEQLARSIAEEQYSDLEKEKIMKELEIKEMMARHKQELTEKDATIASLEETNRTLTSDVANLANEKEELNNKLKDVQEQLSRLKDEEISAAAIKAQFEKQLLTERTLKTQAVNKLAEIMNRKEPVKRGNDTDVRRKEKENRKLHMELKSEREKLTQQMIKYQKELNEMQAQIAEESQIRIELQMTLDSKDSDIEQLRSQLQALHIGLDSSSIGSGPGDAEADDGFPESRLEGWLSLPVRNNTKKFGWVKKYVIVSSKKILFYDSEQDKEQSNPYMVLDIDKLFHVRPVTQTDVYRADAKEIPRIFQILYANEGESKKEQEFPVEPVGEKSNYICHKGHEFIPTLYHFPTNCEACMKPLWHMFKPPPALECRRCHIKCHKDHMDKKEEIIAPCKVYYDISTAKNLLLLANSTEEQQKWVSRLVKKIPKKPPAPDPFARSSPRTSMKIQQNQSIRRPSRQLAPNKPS

Row | Structure (SMILES) | IC50 [1] | further results
1 | COc1cccc(C(CO)NC(=O)c2cccc(-c3ccc4[nH]ncc4c3)c2)c1 (stereo not drawn) | – | bioavailability [2]: 45%; half-life [3]: 2.9 h
2 | c1cc(Oc2ccc3c(c2)CNCC3)c2c(-c3ccncc3)c[nH]c2c1 | – | Ki [4]: < 3 nM; Ki [5]: < 3 nM
3 | Cc1c[nH]c2nccc(Oc3ccc(Nc4cc(Cl)nc(N)n4)cc3F)c12 | – | half-life [6]: 1.2 h; bioavailability [7]: 48%
4 | COc1cc(-c2cc(C)cc(C)n2)sc1C(=O)NCC(O)CO (stereo not drawn) | 14 nM | –

More lines, main results first:

Row | IC50 [1] | Structure (SMILES) | further results
5 | 0.2 nM | Cc1c(C(=O)N[C@H]2C[C@]3(C2)C[C@H](c2n[nH]c(=O)c4ccccc42)C3)cnn1-c1ccccc1 (stereo partly drawn) | –
6 | < 5 nM | COc1cccc(Cn2cnn(-c3ccc(-c4cn[nH]c4)cc3)c2=O)c1 | –
7 | < 3 nM | COc1cccc(CN2C(=O)N(c3ccc(-c4cn[nH]c4)c(OC)c3)CC23CC3)c1 | –
8 | 2 nM | NC(=O)c1ccccc1O[C@H]1C[C@]2(C1)C[C@H](N1C(=O)NC(c3ccccc3Cl)C1=O)C2 (stereo partly drawn) | –
9 | < 10 nM | COc1cccc(CN2CCN(c3ccc4c(c3)CCc3n[nH]cc3-4)C2=O)c1 | –
10 | 1.45 nM | NC[C@@H](C(=O)Nc1ccc2cnsc2c1)c1ccc(CO)cc1 | –
